Columns and labels:
[1] = test system: prostate and seminal vesicules; assay: Peptide in association with an antiandrogen: weight of prostate and seminal vesicles in rats; format: in vivo, rats of the Sprague-Dawley strain; conditions: 14 days, 100 or 500 μg peptide s.c. plus 5 mg product A twice daily
Procedure: The effect of the administration of [D Ser (tbu)^6 des Gly NH2^10 ] LH-RH ethylamide in association with an antiandrogen was determined on groups of 9 normal rats of the Sprague-Dawley strain weighing about 250 g. The rats received for 14 days a subcutaneous administration at 9 A.M. of D Ser(Tbu)^6 of Gly^10 LH-RH ethylamide at a dose of 20, 100 or 500 μg in physiological serum and at 9 A.M. and 4 P.M. doses of 1 or 5 mg of 5,5-dimethyl-3-[4-nitro-3-trifluoromethyl-phenyl]-2,4-imidazolidinedione (product A) in solution in seasame oil containing 5% of benzyl alcohol. One group of rats received only physiological serum and one group received only product A.
The animals were killed 24 hours after the last injection and the weight of the prostate and seminal vesicules of the rats were determined.

[2] = test system: testicular steroidogenesis; assay: Inhibitory activity against testicular steroidogenesis in men in good health, single intranasal dose; format: in vivo; conditions: for seric level of testosterone/steroids on the fourth day after administration: fourth day (until 6th day)
Procedure: The inhibitory activity of [D Ser (tbu)^6 xdes Gly NH2^10 ]LH-RH ethylamide (described in German application Ser. No. 2,438,350) against testicular steroidogensis in men in good health was determined on men in good health aged 30 to 40 years. The said product was administered intranasally at a dose of 500 μg in a few drops of distilled water at 8 A.M. on the third day of the test. For 2 days prior to the treatment and for 6 days after the treatment, samples of blood were taken daily at 8 A.M., 3 P.M. and 10 P.M. On the day of administration of the LH-RH agonist, blood samples were taken at 11 A.M. and 6 P.M.
The seric concentrations of LH and FSH were measured by radioimmuno-logic dosages with double antibodies and the antiboides for measuring LH and FSH were furnished by the National Pituitary Agency of N.I.H. in Bethesda, Md. The seric concentrations of steroids was measured by radioimmuno-logic dosages in which one ml of serum was extracted with ether and the steroids were separated on a LH-20 column before measuring with radioimmuno-logic dosages. The radioimmuno-logic dosage results were determined by a program derived from model II of Rodbard et al [Second Karolinska Symposium on Research Methods in Reproductive Endroerinology, Diczfalusky Editer, Copenhague (1970), pp. 79-103]. The statistical significance was determined by the "multiple level test" of Duncan-Kramer [Kramer, Biometrics, vol. 12 (1956), p. 307]. The results are shown in the graphs on sheet 1 of the Figures filed herewith.

[3] = test system: testicular steroidogenesis; assay: Inhibitory activity on testicular steroidogenesis in a patient with prostate cancer; format: in vivo, human; conditions: intranasal 500 μg twice a day
Text: The results are reported in the graphs of sheet 2 of the Figures.

ovarian steroidogenesis = assay: Inhibitory activity on ovarian steroidogenesis in women; format: in vivo
Procedure: The inhibitory activity of [D Ser (tbu)^6 xdes Gly NH2^10 ]LH-RH ethylamide on ovarian steroidogenosis in women was determined on 6 women aged 26 to 35 years with normal and regular menstrual cycles and without prior endocrinal or gynecological problems. The study was conducted for 6 consecutive cycles consisting of 2 pretreatment cycles, 2 treatment cycles and 2 post-treatment cycles. Two drops of a solution containing 500 μg of [D Ser (tbu)^6 xdes Gly NH2^10 ] LH-RH ethylamide were deposited on each nostril at 8 A.M. and 5 P.M. of a day between the 4th and 9th day after the peak of LH-day 0. Daily blood samples were taken between 4 and 6 P.M. to measure seric levels of LH, FSH, progesterone and estradiol which were determined by radioimmuno-logictests with double antibodies. The antibodies to measure LH and FSH were furnished by the National Pituitory Agency of N.I.H. of Bethesda, Md.
Estradiol and progesterone were measured with highly specific antibodies developed against 7-(O-carboxymethyl)oxime of estradiol and 12-(O-carboxymethyl)-oxime of progesterone, respectively [3H] 17β-estradiol and ^125 I-progesterone -12-[O-carboxymethyl)-oxime]used as tracers. The serum was extracted with benzene and the steroids were separated with a LH-20 column before the determination. The radioimmunological results were exploited by the program derived from model II of Rodbard and Lewald as in Example 1 and the statistical significance was measured by the multiple level test of Ducan-Kramer of Example 1. The results are shown in the graphs of sheets 3 to 5 of the Figures.

[4] = intranasal 500 μg, 3rd day following administration
[5] = intranasal 500 μg at 8 A.M. and 5 P.M. of one day in luteal phase, typical subject (sheet 3)

## CCNC(=O)[C@@H]1CCCN1C(=O)[C@H](CCCNC(=N)N)NC(=O)[C@H](CC(C)C)NC(=O)[C@@H](COC(C)(C)C)NC(=O)[C@H](Cc1ccc(O)cc1)NC(=O)[C@H](CO)NC(=O)[C@H](Cc1c[nH]c2ccccc12)NC(=O)[C@H](Cc1c[nH]cn1)NC(=O)[C@@H]1CCC(=O)N1 [[D Ser (tbu)^6 xdes Gly NH2^10] LH-RH ethylamide]
[1]
  weight of the prostate: Similar, but a little less marked
  weight of the seminal vesicules: approached the weight of the seminal vesicules of castrated rats
[2]; [4]
  concentration of 17-OH-progesterone relative to initial control values: 40%
  concentration of testosterone relative to initial control values: 50%
[2]; intranasal 500 μg, day of treatment
  seric concentration of pregnenolone, 17-OH-pregnenolone, progesterone, 17-OH-progesterone, Δ5-androstene-3β,17β-diol and testosterone on the day of treatment: increased
[2]; intranasal 500 μg, men
  plasmatic levels of LH and FSH: increase
[2]; single intranasal dose 500 μg
  seric level of testosterone/steroids on the fourth day after administration: returned to normal
[2]; single intranasal dose 500 μg, listed as peptide
  seric level of testosterone/steroids on the fourth day after administration: return to normal levels
[2]; single intranasal dose 500 μg, human
  duration of the drop of seric levels of testicular steroids (testosterone and its precursors): 3 days
[2]; single intranasal dose 500 μg, human, 3rd day following administration
  diminution of the level of testosterone: 50%
[3]
  level of androgenic steroids (plasma): diminution
[3]; two weeks of treatment
  level of testosterone (plasma): stabilized at a very low level
Ovarian steroidogenesis; 12 cycles of treatment (sheet 5)
  reduction of the level of progesterone as compared to the controls: 46%
Ovarian steroidogenesis; 12 cycles, 6 women
  progesterone level in cycles of post-treatment, pretreatment cycles as base of 100%: 99%
  progesterone level in cycles of treatment, pretreatment cycles as base of 100%: 46%
Ovarian steroidogenesis; [5]
  reduction of seric levels of progesterone compared to controls, first cycle of treatment: 13%
  reduction of seric levels of progesterone compared to controls, second cycle of treatment: 34%
Ovarian steroidogenesis; return to normal for the 2 cycles of post-treatment
  level of seric progesterone over the 2 cycles of treatment (sheet 4): accelerated diminution
